From patent US20220218781A1, “COMPOSITION FOR ENHANCEMENT OF BIOAVAILABILITY OF PHYTOCHEMICALS AND PROCESS FOR PREPARATION THEREOF” (OLENE LIFE SCIENCES PRIVATE LIMITED, priority 2019, published 2022)

Assay: Comparative self-dispersion study in water
Assay type: physicochemical
Conditions: without mechanical stirring, test product vs. standard unformulated reference product
Experimental: A comparative self-dispersion study was carried out between the ‘Composition of Example 1 (Test product)’ and ‘Standard unformulated lutein extract (Reference product)’.
A comparative self-dispersion study was carried out between the ‘Composition of Example 13 (Test product)’ and ‘Standard unformulated Boswellia extract (Reference product)’.
A comparative self-dispersion study was carried out between the ‘Composition of Example 16 (Test product)’ and ‘Standard unformulated Pepper extract (Reference product)’.
A comparative self dispersion study was carried out between the ‘Composition of Example 22 (Test product)’ and ‘Standard unformulated Coenzyme Q10 Extract (Reference product)’.
A comparative self dispersion study was carried out between the ‘Composition of Example 25 (Test product)’ and ‘Standard unformulated Palmitoylethanolamide (Reference product)’. The dispersion profile is given in FIG. 7A (test product) and FIG. 7B (reference product).

SMILES: COC1=C(OC)C(=O)C(C/C=C(\C)CC/C=C(\C)CC/C=C(\C)CC/C=C(\C)CC/C=C(\C)CC/C=C(\C)CC/C=C(\C)CC/C=C(\C)CC/C=C(\C)CCC=C(C)C)=C(C)C1=O [Coenzyme Q10]
- self-dispersion profile: non-dispersible
